Laboratory results as given in US20150272911A1, “Use of AMPK Inducers and Metformin for the Treatment of Fibromyalgia” (priority 2014, published 2015).

Columns and labels:
mice [1] = assay: Symptoms of fibromyalgia (pain, depression) in mice with AMPK inhibited by compound c; type: in vivo; details: then metformin
Source text: In order to monitor the effect of metformin in an in vivo model of AMPK deficit, we will use mice that will be administered compound c, a specific inhibitor of AMPK phosphorylation, in time, and their behaviour will be characterised one week before starting the administrations of compound c and 7 days after the first administration. […] Prior to beginning the administration of compound c and metformin, and following the pain behaviour tests, other behavioural tests will be conducted which show other symptoms presented by patients with fibromyalgia: […]

mice [2] = details: after first five days of compound c; FIG. 10
Source text: Following the first five days of administration of compound c, behavioural determinations were made in order to evaluate the symptoms. […] Another symptom associated with pain in fibromyalgia is depression.
Depression test: Tail suspension, forced swimming.

AMPK phosphorylation = assay: Mouse model of AMPK activation deficiency induced by compound C: biochemical parameters; type: in vivo, mice of the Swiss strain; details: for ATP (deficit) / citrate synthase (mitochondrial mass) / lipid peroxidation / activation of IL-1β interleukin of the inflammasome / activation of IL-18 interleukin of the inflammasome: mice, compound C 20 mg/kg/day i.p., alone or with metformin; for ATP (deficit): FIG. 5; for citrate synthase (mitochondrial mass): FIG. 6; for lipid peroxidation / activation of IL-1β interleukin of the inflammasome / activation of IL-18 interleukin of the inflammasome: serum; for lipid peroxidation: FIG. 7; for activation of IL-1β interleukin of the inflammasome / activation of IL-18 interleukin of the inflammasome: FIG. 8
Procedure: The mice were injected by intraperitoneal route once a day, the final daily dose being 20 mg/kg/day. Another group of mice received the treatment with Compound C in addition to Metformin. The treatment is performed until the day the animals are sacrificed. […]
Blood: The blood will be the starting-point to obtain serum or isolate leukocytes. The following will be measured in the serum: glucose, triglycerides, cholesterol, lactate, proteins, redox potential, protein oxidation, etc. The following will be measured in the leukocytes: ATP, inflammatory interleukins, oxidative stress, mitochondrial mass.

mice [3] = assay: Hot-plate test (nociception) in mice; type: in vivo; details: after first five days of compound c; at Temp.<50° C. and Temp.>50° C.; FIG. 9
Source text: Another symptom associated with pain in fibromyalgia is depression.
In order to monitor the effect of metformin in an in vivo model of AMPK deficit, we will use mice that will be administered compound c, a specific inhibitor of AMPK phosphorylation, in time, and their behaviour will be characterised one week before starting the administrations of compound c and 7 days after the first administration. This experimental design will provide us with a view as to how metformin inhibits the effects induced by the deficit of AMPK and its influence on the behaviour of the mice, monitoring, with particular interest, those tests that show an alteration of nociception (hot plate, visceral pain [J Neurochem (2007) 103: 2629-39] and muscle pain [J Neurosci (2007) 27: 10000-6]). Prior to beginning the administration of compound c and metformin, and following the pain behaviour tests, other behavioural tests will be conducted which show other symptoms presented by patients with fibromyalgia: […]

[4] = system: fibroblasts of patients with fibromyalgia; assay: Protection of patient fibroblasts exposed to hydrogen peroxide (cell death); type: cell-based, human; details: low doses of hydrogen peroxide with metformin added, FIG. 4
Procedure: Parallel to this, skin fibroblasts isolated from patients with fibromyalgia kept under culture with DMEM medium with 20% serum and 5% CO2 will be used. […] Once the ideal working dose has been found, below 5 mM, we will be able to quantify the protection against stressful stimuli through the effect of hydrogen peroxide, a very potent free radical. Using flow cytometry, we will evaluate the production of ROS before and after the treatment below 5 mM. Other parameters to be quantified at these doses will be ATP, by means of luminometry, citrate synthase as a marker of mitochondrial mass, by means of enzyme kinetics spectrophotometry, and inflammatory interleukins by means of ELISA.

[5] = neuropathic pain (Russe et al., 2013), adiposis dolorosa (Labuzek et al., 2013); cited from earlier work
[6] = system: blood mononuclear cells (BMCs) of patients with fibromyalgia; details: BMCs of 20 fibromyalgia patients after metformin
Source text: (§1) In order to study the role of AMPK phosphorylation in patients with fibromyalgia, AMPK activation was induced with metformin, a potent AMPK stimulator, in the BMCs of 20 patients.
(§2) In order to evaluate the effect of metformin in in vitro models of fibromyalgia, we will use mononuclear cells isolated from patients with fibromyalgia and kept under culture conditions, with RPMI medium with 10% serum and 5% CO2. Parallel to this, skin fibroblasts isolated from patients with fibromyalgia kept under culture with DMEM medium with 20% serum and 5% CO2 will be used. These cultures will enable us to evaluate the toxicity of different doses of metformin and compounds that induce AMPK phosphorylation, through the quantification of apotosis and cell growth, by counting the nuclei of live cells. Once the ideal working dose has been found, below 5 mM, we will be able to quantify the protection against stressful stimuli through the effect of hydrogen peroxide, a very potent free radical. Using flow cytometry, we will evaluate the production of ROS before and after the treatment below 5 mM. Other parameters to be quantified at these doses will be ATP, by means of luminometry, citrate synthase as a marker of mitochondrial mass, by means of enzyme kinetics spectrophotometry, and inflammatory interleukins by means of ELISA.

[7] = system: inflammasome (IL-1β, IL-18) in BMCs of patients with fibromyalgia; assay: IL-1β and IL-18 inflammasome interleukins in cells of fibromyalgia patients; type: cell-based, human
Source text: as §1, §2

[8] = BMCs of fibromyalgia patients after metformin, FIG. 3

Compound	symptoms typical of fibromyalgia, such as pain or depression (mice [1])	paralysis (immobilisation) in tail suspension test, reflecting depression (mice [2])	ATP (deficit) (AMPK phosphorylation)	citrate synthase (mitochondrial mass) (AMPK phosphorylation)	lipid peroxidation (AMPK phosphorylation)	activation of IL-1β interleukin of the inflammasome (AMPK phosphorylation)	activation of IL-18 interleukin of the inflammasome (AMPK phosphorylation)	response latency to the thermal stimulus (hot-plate test) (mice [3])	inhibition of the inflammasome (AMPK phosphorylation; mice with inhibited AMPK)	cell death [4]	analgesic effect [5]	ATP levels ([6]; FIG. 1)	mitochondrial ROS ([6]; FIG. 2)	IL-1β interleukin of the inflammasome [7, 8]	IL-18 interleukin of the inflammasome [7, 8]	inhibition of the inflammasome ([7]; cells of patients with fibromyalgia)
c1cc(-c2cnn3cc(-c4ccc(OCCN5CCCCC5)cc4)cnc23)ccn1 [compound c]	presented symptoms typical of fibromyalgia	greater paralysis	induced alterations	induced alterations	induced alterations	induced alterations	induced alterations	decrease in the response latency								
CN(C)C(=N)N=C(N)N [metformin]	recovery in the symptoms		restored	restored	restored	restored	restored		demonstrated inhibition of the inflammasome	significantly reduced	strong analgesic effect	significant recovery	decrease	decrease	decrease	demonstrated inhibition of the inflammasome
